Measurements from article PMC8470770, “Characterization of a Primate Blood-Brain Barrier Co-Culture Model Prepared from Primary Brain Endothelial Cells, Pericytes and Astrocytes” (Pharmaceutics, 2021).
Where two headings read alike, the source gives them in different places. One block for each compound: values may come before it.

Legend:
in vitro = settings: cynomolgus monkey (Macaca fascicularis)
Method: To prepare the in vitro co-culture models (EPA), pericytes (2 × 10^4 cells/cm^2) were cultured on the bottom sides of collagen-coated culture inserts (Transwell clear, polyester membrane, 0.4 μm pore size, Corning Costar, NY, USA), and astrocytes (0.5 × 10^5 cell/cm^2) were seeded on the collagen-coated well of a 24-well culture plate. Cells were let to adhere overnight, and endothelial cells (2 × 10^5 cells/cm^2) were seeded on the inside of the inserts (top side of the membranes) and placed in the wells of the 24-well culture plates. An endothelial cell monolayer model (E00) was constructed by a similar method as the co-culture model, except for the procedure of seeding of pericytes and astrocytes. BBB models were maintained in RBEC medium supplemented with 550 nM hydrocortisone.
The permeability of the same 10 drugs was measured in the apical-to-basolateral (A-B) and basolateral-to-apical (B-A) directions as described in our previous study. All test compounds were dissolved in DMSO to yield a 10 mM solution, which was further diluted to 10 μM in HBSS-Hepes buffer (Hank’s Buffered Salt Solution containing 25 mM Hepes). […] The concentration of test compounds in the samples was determined by a Merck–Hitachi LaChrom HPLC with UV–VIS or a fluorescence detector (Merck, Darmstadt, Germany). […] Apparent permeability coefficients (Papp) were calculated using the following equation: Papp = (dQ/dT)/(A × C0), where dQ/dT is the cumulative amount in the receiver compartment versus time, A is the surface of the filter, and C0 is the initial concentration of the tracer in the luminal compartments.

[1] = tested on: rat BBB co-culture model (EPA); design: method as in PMID 22906709; settings: cited from earlier work; for Rat BBB Papp A-B: apical to basal; for Rat BBB Papp B-A: basal to apical
[2] = design: method as in PMID 22906709; settings: cited from earlier work
[3] = tested on: primary triple co-culture monkey BBB model; settings: cited from earlier work
[4] = tested on: P-glycoprotein (P-gp, ABCB1); test: Bidirectional transport of rhodamine 123 across MBECs; settings: 5 μM R123, 1 h, 37 °C; MBEC
Method: For bidirectional transport assay, the flux of 5 μM R123 in assay buffer was measured for 1 h at 37 °C in the luminal-to-abluminal and in the opposite abluminal-to-luminal directions. After measuring the R123 content in samples collected from both compartments, Pe values were calculated.

[5] = Sodium fluorescein permeability (Pe) of monkey BBB mono- and co-culture models; type: in vitro ADME; settings: cynomolgus monkey (Macaca fascicularis), 10 μg/mL Na-F, read-out: endothelial permeability coefficient for sodium fluorescein (Na-F Pe)
Method: (§1) To evaluate the barrier function in different BBB models, transendothelial electrical resistance (TEER) was measured by an EVOM resistance meter and Endohm chamber (World Precision Instruments, Sarasota, FL, USA). The resistance values of blank inserts (background resistance) were subtracted from values of inserts with cells. TEER data are shown as Ω × cm^2. The permeability of sodium fluorescein (Na-F, MW: 376 Da) was also determined, and used as an index of paracellular transport. Cell culture inserts were transferred to 24-well plates containing 0.9 mL assay buffer (Dulbecco’s PBS (D-PBS) containing 0.9 mM CaCl2, 0.5 mM MgCl2, 4.5 g/L glucose, and 10 mM HEPES; pH 7.4). The luminal culture medium was replaced with 0.2 mL of assay buffer containing 10 μg/mL Na-F. Fifteen or 45 min after Na-F addition, the inserts were transferred to new wells containing the assay buffer. […] Transendothelial permeability coefficient (Pe) was calculated as previously described.

SLC35F2 = tested on: SLC35F2; design: method as in PMID 33144341; settings: monkey BBB kit; famotidine as inhibitor; cited from earlier work
[6] = tested on: receptors for advanced glycation end-product (RAGE); settings: cited from earlier work
[7] = tested on: monkey co-culture BBB model (EPA); test: Effect of TGF-β1 on barrier integrity (TEER) in monkey co-culture BBB model (EPA); type: cell-based, Macaca fascicularis; settings: TGF-β1 1 ng/mL, 3, 6, and 12-h time points
Method: as §1

Papp A→B at 10 μM (in vitro): 32.7 ×10⁻⁶ cm/s
Papp B→A at 10 μM (in vitro): 39.1 ×10⁻⁶ cm/s
efflux ratio at 10 μM (in vitro): 1.2
Compound: COc1ccc2c(c1)c(CC(=O)O)c(C)n2C(=O)c1ccc(Cl)cc1 [Indomethacin]
Rat BBB Papp A-B [1]: 3.363e-05 cm/s
Rat BBB Papp B-A [1]: 4.407e-05 cm/s
Rat BBB Efflux Ratio [1]: 1.31
Mouse In Vivo Papp [2]: 1.3e-07 cm/s

Compound: COc1cc2c(cc1Cc1cccc(Cl)c1F)c(=O)c(C(=O)O)cn2[C@H](CO)C(C)C [elvitegravir]
mean Papp across the monkey BBB model [3]: 1.86e-05 cm/s

transport of R123 from brain side to blood side (B-A) versus opposite direction (A-B) [4]: almost four-fold higher
Compound: COC(=O)c1ccccc1-c1c2ccc(=N)cc-2oc2cc(N)ccc12 [R123, rhodamine 123]

Compound: O=c1c(O)c(-c2cc(O)c(O)c(O)c2)oc2cc(O)cc(O)c12 [myricetin]
Papp in the monkey BBB model [3]: 2.5e-06 cm/s

Compound: Cn1c(=O)c2c(ncn2C)n(C)c1=O [Caffeine]
Papp A→B at 10 μM (in vitro): 60.5 ×10⁻⁶ cm/s
Papp B→A at 10 μM (in vitro): 65.2 ×10⁻⁶ cm/s
Rat BBB Papp A-B [1]: 6.495e-05 cm/s
Rat BBB Papp B-A [1]: 5.991e-05 cm/s
Mouse In Vivo Papp [2]: 1.111e-05 cm/s
mean Papp across the monkey BBB model [3]: 71.7 ± 3.2 × 10^−6 cm/s

Papp A→B at 10 μM (in vitro): 1.47 ×10⁻⁶ cm/s
Papp B→A at 10 μM (in vitro): 2.14 ×10⁻⁶ cm/s
efflux ratio at 10 μM (in vitro): 1.46
Compound: CC[C@]1(O)C[C@@H]2CN(CCc3c([nH]c4ccccc34)[C@@](C(=O)OC)(c3cc4c(cc3OC)N(C)[C@H]3[C@@](O)(C(=O)OC)[C@H](OC(C)=O)[C@]5(CC)C=CCN6CC[C@]43[C@@H]65)C2)C1 [Vinblastine]
Rat BBB Papp A-B [1]: 2.42e-06 cm/s
Rat BBB Papp B-A [1]: 1.39e-06 cm/s
Rat BBB Efflux Ratio [1]: 0.69
Mouse In Vivo Papp [2]: 1.43e-06 cm/s

Papp A→B at 10 μM (in vitro): 3 ×10⁻⁶ cm/s
Papp B→A at 10 μM (in vitro): 2.88 ×10⁻⁶ cm/s
efflux ratio at 10 μM (in vitro): 0.97
Compound: CN/C(=N/CCSCc1nc[nH]c1C)NC#N [Cimetidine]
Rat BBB Papp A-B [1]: 3.86e-06 cm/s
Rat BBB Papp B-A [1]: 2.8e-06 cm/s
Rat BBB Efflux Ratio [1]: 0.75
Mouse In Vivo Papp [2]: 2e-07 cm/s

Compound: Cc1nnc(C(=O)NC(C)(C)c2nc(C(=O)NCc3ccc(F)cc3)c(O)c(=O)n2C)o1 [raltegravir]
mean Papp across the monkey BBB model [3]: 1.02e-05 cm/s

Papp at 10 μg/mL ([5]; pH 7.4, MBEC co-culture with rat pericytes (EP0)): 0.74 ± 0.06 ×10⁻⁶ cm/s
Papp at 10 μg/mL ([5]; pH 7.4, MBEC co-culture with rat pericytes and astrocytes (EPA)): 0.69 ± 0.07 ×10⁻⁶ cm/s
Papp at 10 μg/mL ([5]; pH 7.4, monolayer MBEC model (E00)): 2.44 ± 0.04 ×10⁻⁶ cm/s
Compound: O=C1OC2(c3ccc(O)cc3Oc3cc(O)ccc32)c2ccccc21 [Na-F, sodium fluorescein]

Compound: COCCn1c2c([n+](Cc3cnccn3)c1C)C(=O)c1ccccc1C2=O [YM155, sepantronium bromide]
BBB permeability and intraendothelial accumulation (SLC35F2 substrate transport) (SLC35F2): famotidine-inhibitable BBB permeability and intraendothelial accumulation

Compound: C=C[C@H]1C[N@@]2CC[C@H]1C[C@@H]2[C@@H](O)c1ccnc2ccc(OC)cc12 [Quinidine]
Rat BBB Papp A-B [1]: 6.28e-06 cm/s
Rat BBB Papp B-A [1]: 1.211e-05 cm/s
Mouse In Vivo Papp [2]: 1.69e-06 cm/s

Compound: C[C@H]1O[C@@H](O[C@H]2[C@@H](O)C[C@H](O[C@H]3[C@@H](O)C[C@H](O[C@H]4CC[C@@]5(C)[C@H](CC[C@@H]6[C@@H]5C[C@@H](O)[C@]5(C)[C@@H](C7=CC(=O)OC7)CC[C@]65O)C4)O[C@@H]3C)O[C@@H]2C)C[C@H](O)[C@@H]1O [Digoxin]
Mouse In Vivo Papp [2]: 1e-07 cm/s

Compound: oxytocin
reduction of blood-to-brain direction transport when RAGE was silenced by shRNA [6]: approximately 70%

Compound: CN(C)C(=O)C(CCN1CCC(O)(c2ccc(Cl)cc2)CC1)(c1ccccc1)c1ccccc1 [Loperamide]
Rat BBB Papp A-B [1]: 1.557e-05 cm/s
Rat BBB Papp B-A [1]: 2.176e-05 cm/s
Mouse In Vivo Papp [2]: 1.05e-06 cm/s

Compound: O=C1Nc2ccc(Cl)cc2[C@@](C#CC2CC2)(C(F)(F)F)O1 [efavirenz]
mean Papp across the monkey BBB model [3]: 1.44e-05 cm/s

Compound: Cc1ccnc2c1NC(=O)c1cccnc1N2C1CC1 [nevirapine]
mean Papp across the monkey BBB model [3]: 3.2e-05 cm/s

Compound: TGF-β1: cytokine transforming growth factor β1
decrease in TEER values compared to medium treated group [7]: ~ 30%
